viability, T/C and IC50 data for seven compounds are collected here from PubChem BioAssay AID2060498 (Molecular Pharmacology Branch, DTP, NCI, 2025).

This assay relates to 171881-019-R-J1-PDC tumor spheroids, viability. Put plainly: Anticancer human tumor 171881-019-R-J1-PDC patient-derived invasive breast carcinoma cell line growth inhibition [GQUAD]. The settings on record: spheroids with HUVEC and MSC; for viability, T/C: stronger effect = lower value. The source says:
DNA G-quadruplex Stabilizer Agents in Combinations in Complex Spheroids
A high-throughput screen of multi-cell type tumor spheroids was designed to identify active combinations of DNA G-quadruplex stabilizer agents and targeted small molecules. Complex spheroids include a stromal component modeled by human endothelial cells (HUVEC) and fibroblasts modeled by human mesenchymal stem cells (MSCs). The concentration ranges selected for each drug and investigational agent were based upon clinically achievable concentrations if the clinical Cmax of the agent was known.
Compounds. The drugs and investigational agents: pidnarulex (CX-5461; NSC782164), APTO-253 (NSC789042), BRACO-19 (NSC847499), peposertib (NSC802822), ceralasertib (NSC780249), elimusertib (NSC800525), camonsertib (NSC841442), AZD-1390 (NSC803789), olaparib (NSC753686), talazoparib (NSC767125), ART-558 (NSC835418), sotorasib (NSC818433), MRTX-1133 (NSC836407), SN-38 (NSC673596), topotecan (NSC609699), etoposide (NSC141540), doxorubicin (NSC123127), gemcitabine (NSC613327), 5-fluorouracil (NSC19893), paclitaxel (NSC125973), vemurafenib (NSC761431), panobinostat (NSC761190), R-306465 (JNJ-16241199; NSC773264), adavosertib (NSC754352), TP-3654 (NSC805149), carboplatin (NSC241240), KSQ-4279 (NSC840948), and staurosporine (NSC755774) were obtained from the National Cancer Institute (NCI) Developmental Therapeutics Program Chemical Repository (34). The FDA-approved anticancer drug set is available from the NCI Developmental Therapeutics Program. […] The stock solutions were prepared in dimethyl sulfoxide (DMSO, Sigma-Aldrich, St. Louis, MO, cat. D2650) at 800-fold the tested concentration and stored at -70 degrees C prior to their use. All drugs and investigational agents were tested over a range starting from a high concentration at or near the clinical Cmax and decreasing in half-log increments. If the clinical Cmax for an agent had not been determined, the highest concentration tested was 10 microM.
2.3 Cell Culture. All cells were maintained in an incubator at 37 degrees C and 5% CO2 with 95% humidity. The PDC lines were cultured according to standard operating procedures established by the NCI PDMR. All PDCs were thawed and cultured in Matrigel-coated flasks prepared with a working solution of 1X Ham's F-12 nutrient mix, without supplementation (Invitrogen, cat. 11765054), 100 U/mL penicillin-streptomycin (Invitrogen, cat. 15140122), and 2.5% Matrigel (Corning Inc., cat. 354248) for the first three passages. The 857933-349-R-J2-PDC line was cultured in 6C/Colon 1B media, which includes advanced DMEM/F-12 (Thermo Fisher Scientific, cat. 12634028), 10 mM HEPES (Thermo Fisher Scientific, cat. 15630080), 1X GlutaMAX supplement (Thermo Fisher Scientific, cat. 35050061), 0.1 mg/mL primocin (InvivoGen, cat. ant-pm-2), 10% defined fetal bovine serum, heat inactivated (HyClone Laboratories Inc., cat. SH30070.03HI), 50% L-WRN conditioned media (ATCC, cat. CRL-3276), 1.25 mM N-Acetyl-L-cysteine (Sigma-Aldrich, cat. A9165), 10 mM nicotinamide (Sigma-Aldrich, cat. N0636), 1X B-27 supplement (Thermo Fisher Scientific, cat. 17504044), 1X N-2 supplement (Thermo Fisher Scientific, cat. 17502048), 10 microM Y-27632 dihydrochloride (Tocris Bioscience, cat. 1254), and 50 ng/mL human EGF recombinant protein (Thermo Fisher Scientific, cat. PHG0311). The 485176-168-R4-J1-PDC line was cultured in Panc media, which includes all 6C/Colon 1B media components plus 100 ng/mL human FGF-10 (Thermo Fisher Scientific, cat. 100-26), 500 nM SB-431542 (Selleckchem, cat. S1067), and gastrin (Tocris, cat. 3006).
[…]

“And” between values parts separate entries of the source, which are not always exact repeats. Equal entries are not always repeated.
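Further: spheroids exposed to compounds for 7 days.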

A word on the viability, T/C: it is the ratio of treated to control. For orientation: IC50 means the concentration that gives 50% inhibition. Take `C#Cc1c(F)ccc2cc(O)cc(-c3ncc4c(N5CC6CCC(C5)N6)nc(OCC56CCCN5CC(F)C6)nc4c3F)c12` (centres undefined): the viability, T/C runs as follows: (compound 0.0316 µM) 91.1% and 86.6% and 83.5%; (compound 0.1 µM) 72.5% and 68.7% and 74.1%; (compound 0.316 µM) 55.5% and 61.2% and 55.2%; (compound 1 µM) 41.4% and 38% and 36.8%; (compound 3.16 µM) 29.1% and 29.3% and 26.5%; (compound 10 µM) 24.5% and 6.82% and 10.6%. In addition, under “curve of compound”, the IC50 is 478 nM and 552 nM and 475 nM.
As for `C=CCn1c(=O)c2cnc(Nc3ccc(N4CCN(C)CC4)cc3)nc2n1-c1cccc(C(C)(C)O)n1`, the viability, T/C runs as follows: (compound 0.0316 µM) 101% and 105% (2×); (compound 0.1 µM) 80.9% and 102% and 89.4%; (compound 0.316 µM) 76.6% and 92% and 76.5%; (compound 1 µM) 35.9% (2×) and 39.2%; (compound 3.16 µM) 18.3% and 21.7% and 21.2%; (compound 10 µM) 23.2% and 23.1% and 21.7%. Further, the IC50 (curve of compound) is 660 nM and 789 nM and 669 nM.
As to `CC(C)(O)C1CCC(Nc2ccc3ncc(-c4cccc(C(F)(F)F)c4)n3n2)CC1` (centres undefined), the viability, T/C (compound 0.0316 µM) was 94.5% and 97.7% and 83.7%; the viability, T/C (compound 0.1 µM) was 103% and 88.9% and 87.9%; the viability, T/C (compound 0.316 µM) is 90% and 92.4% and 78.3%; the viability, T/C (compound 1 µM) is 74.2% and 75.5% and 74.3%; the viability, T/C (compound 3.16 µM) was 25.5% and 27.5% and 22.3%; the viability, T/C (compound 10 µM) is 33.8% and 31.2% and 26.3%. In addition, the 50% inhibitory concentration (IC50) (curve of compound) was 1870 nM and 1890 nM and 1750 nM.
For `CCCS(=O)(=O)Nc1ccc(F)c(C(=O)c2c[nH]c3ncc(-c4ccc(Cl)cc4)cc23)c1F`, the viability, T/C reads like this: (compound 0.0316 µM) 93.6% and 96.9% and 102%; (compound 0.1 µM) 104% and 92.1% and 101%; (compound 0.316 µM) 105% and 114% and 98.3%; (compound 1 µM) 113% and 97.5% and 123%; (compound 3.16 µM) 96.5% and 102% and 108%; (compound 10 µM) 51% and 50.6% and 74.3%. Moreover, for the setting “curve of compound”, the IC50 was greater than 10000 nM.
On to `COc1ncnc(C2CC2)c1-c1ncc2cnn(Cc3ccc(-c4nc(C(F)(F)F)cn4C(C)C)cc3)c2n1`, for which the viability, T/C was 94% and 84.8% and 93.3% (compound 0.0316 µM); 89.3% and 100% and 93.7% (compound 0.1 µM); 85.2% and 92.9% and 94% (compound 0.316 µM); 100% and 95.7% and 106% (compound 1 µM); 91.3% and 98.7% and 97.9% (compound 3.16 µM); 76.1% and 90.1% and 79.6% (compound 10 µM). For the setting “curve of compound”, the IC50 was greater than 10000 nM.
For the compound `O=C(NO)c1cnc(N2CCN(S(=O)(=O)c3ccc4ccccc4c3)CC2)nc1`, the viability, T/C was 77.1% and 89.5% and 81.1% (compound 0.0316 µM); 74% and 76.3% and 64.2% (compound 0.1 µM); 44.3% and 39.6% and 41.4% (compound 0.316 µM); 0.86% and 0.61% and 2.4% (compound 1 µM); 0.14% and 0.11% and 0.19% (compound 3.16 µM); 0.33% and 0.21% and 0.18% (compound 10 µM). For the setting “curve of compound”, the IC50 is 255 nM and 224 nM and 201 nM.
Take `CC1COCCN1c1cc(C2(O)CC3CCC(C2)O3)c2cnn(-c3ccn[nH]3)c2n1` (centres undefined) + CN(C)c1ccc(Nc2c3ccc(NC(=O)CCN4CCCC4)cc3nc3cc(NC(=O)CCN4CCCC4)ccc23)cc1: the IC50 is less than 31.6 nM (curve of first compound, second compound 0.0316 µM); less than 31.6 nM (curve of first compound, second compound 0.1 µM); less than 31.6 nM (curve of first compound, second compound 0.316 µM); less than 31.6 nM (curve of first compound, second compound 1 µM); less than 31.6 nM (curve of first compound, second compound 3.16 µM); less than 31.6 nM (curve of first compound, second compound 10 µM). The viability, T/C (second compound 0.0316 µM, first compound 0.0316 µM) was 48%; the viability, T/C (second compound 0.0316 µM, first compound 0.1 µM) is 16.6%; the viability, T/C (second compound 0.0316 µM, first compound 0.316 µM) is 5.6%; the viability, T/C (second compound 0.0316 µM, first compound 1 µM) is 1.83%; the viability, T/C (second compound 0.0316 µM, first compound 3.16 µM) is 1.12%; the viability, T/C (second compound 0.0316 µM, first compound 10 µM) is 0.76%. Further, the viability, T/C is 47.5% (second compound 0.1 µM, first compound 0.0316 µM); 15.7% (second compound 0.1 µM, first compound 0.1 µM); 5.27% (second compound 0.1 µM, first compound 0.316 µM); 1.88% (second compound 0.1 µM, first compound 1 µM); 1.2% (second compound 0.1 µM, first compound 3.16 µM); 1.32% (second compound 0.1 µM, first compound 10 µM). Moreover, the viability, T/C by setting is: (second compound 0.316 µM, first compound 0.0316 µM) 41.9%; (second compound 0.316 µM, first compound 0.1 µM) 13.6%; (second compound 0.316 µM, first compound 0.316 µM) 4.24%; (second compound 0.316 µM, first compound 1 µM) 1.41%; (second compound 0.316 µM, first compound 3.16 µM) 1.02%; (second compound 0.316 µM, first compound 10 µM) 0.73%. Besides, the viability, T/C by setting is: (second compound 1 µM, first compound 0.0316 µM) 12.1%; (second compound 1 µM, first compound 0.1 µM) 4.72%; (second compound 1 µM, first compound 0.316 µM) 2.23%; (second compound 1 µM, first compound 1 µM) 0.4%; (second compound 1 µM, first compound 3.16 µM) 0.33%; (second compound 1 µM, first compound 10 µM) 0.3%. In addition, the viability, T/C reads like this: (second compound 3.16 µM, first compound 0.0316 µM) 1.34%; (second compound 3.16 µM, first compound 0.1 µM) 0.9%; (second compound 3.16 µM, first compound 0.316 µM) 0.41%; (second compound 3.16 µM, first compound 1 µM) 0.14%; (second compound 3.16 µM, first compound 3.16 µM) 0.16%; (second compound 3.16 µM, first compound 10 µM) 0.2%. For the same compound, the viability, T/C is, setting by setting: (second compound 10 µM, first compound 0.0316 µM) 0.14%; (second compound 10 µM, first compound 0.1 µM) 0.25%; (second compound 10 µM, first compound 0.316 µM) 0.42%; (second compound 10 µM, first compound 1 µM) 0.25%; (second compound 10 µM, first compound 3.16 µM) 0.16%; (second compound 10 µM, first compound 10 µM) 0.14%.
